Measured values as given in article PMC9645662, “Dual role of an essential HtrA2/Omi protease in the human malaria parasite: Maintenance of mitochondrial homeostasis and induction of apoptosis-like cell death under cellular stress” (PLOS Pathogens, 2022).

Molecular target: T1, PfHtrA2 (HtrA2/Omi serine protease) (Plasmodium falciparum, UniProt A0A143ZXD4)
T1 construct: gene PF3D7_0812200; protease domain (135–290 aa; HtrA2-protease), histidine-tagged, expressed in E. coli
T1 sequence (A0A143ZXD4 135-290): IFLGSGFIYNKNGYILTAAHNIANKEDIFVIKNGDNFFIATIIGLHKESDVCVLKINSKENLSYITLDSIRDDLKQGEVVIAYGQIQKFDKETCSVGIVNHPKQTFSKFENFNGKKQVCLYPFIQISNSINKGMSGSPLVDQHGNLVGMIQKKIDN
Experiment: fluorogenic protease activity assay of the recombinant protease domain, concentration-dependent inhibition
Type: biochemical

With `O=C1C(=Cc2ccc(-c3ccccc3[N+](=O)[O-])o2)C(=O)N(c2ccccc2)C(=S)N1c1ccccc1` [ucf-101] as the compound, how does the IC50 read?
Its IC50 is 8.1 µM.
